Source: patent US20230085307A1, “PYRIDAZINONE COMPOUND AND HERBICIDE” (NISSAN CHEMICAL CORPORATION, priority 2019, published 2023)

system: oval-leafed pondweed; experiment: Test Example 2: herbicidal activity, application during weed generation under submerged conditions (Table 17, symbol C); format: in vivo, oval-leafed pondweed (Monochoria vaginalis); settings: AAH 320 g/ha; application during weed generation, submerged conditions
Summary of the method: (§1)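 Wagner pot, alluvial soil, 4 cm flood; mixed sowing of all species; greenhouse 25° C.–30° C. Emulsifiable formulation, water-diluted to predetermined dose, applied to paddy water at 1–2 leaf stage. Effect rated at 3 wk using the earlier test's scoring criteria.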

Q: With CCCC(=O)Oc1c(C)nn(C)c(=O)c1-c1c(-c2ccc(SC)cc2)sc2ccc(F)cc12 [2-077] as the compound, how does the “herbicidal effect rating, C: oval-leafed pondweed” value read?
A: 3 (Herbicidal rate of 40% or more and less than 70%)

system: barnyard grass; experiment: Test Example 3: herbicidal effect by foliage application, Wagner pot (Table 18, symbol H); format: in vivo, barnyard grass (Echinochloa crus-galli); settings: 320 g/ha
Summary of the method: (§2)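 Plants were sown in alluvial soil held under 0.1–0.5 cm standing water and grown 14 days in a greenhouse at 25–30 °C. An emulsifiable formulation, water-diluted to the set dose, was then sprayed onto the foliage, and effects were scored three weeks later using previously defined criteria.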

Q: CCCC(=O)Oc1c(C)nn(C)c(=O)c1-c1c(-c2ccc(SC)cc2)sc2ccc(F)cc12 [2-077] was tested. Which “herbicidal effect on H (barnyard grass), rating 0-5” value did it give?
A: 5 (Herbicidal rate of 90% or more (almost completely withered))

system: Japanese bulrush; experiment: Test Example 1: herbicidal activity, application before weed generation under submerged conditions (Table 16, symbol B); format: in vivo, Japanese bulrush (Schoenoplectus juncoides); settings: 320 g/ha applied herbicide
Summary of the method: (§3)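 Emulsion formulation, water-diluted to set dose, was put onto the flooded surface (4 cm depth, alluvial soil) the same day weeds were sown and 2.5-leaf rice transplanted. After 3 weeks at 25-30 °C under glass, each species was rated 0 (≤5% kill) to 5 (≥90% kill).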

Q: CCCC(=O)Oc1c(C)nn(C)c(=O)c1-c1c(-c2ccc(SC)cc2)sc2ccc(F)cc12 [2-077] was tested. Which “Herbicidal effect on B: Japanese bulrush (grade 0-5)” value did it give?
A: 4 (Herbicidal rate of 70% or more and less than 90%)

system: southern crabgrass; experiment: Test Example 5: herbicidal effect by foliage application, plastic box (Table 20, symbol F); format: in vivo, southern crabgrass (Digitaria ciliaris); settings: foliage application, 320 g/ha, evaluated three weeks after application
Summary of the method: (§4)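 Plants sown in sterilized diluvial soil and grown 14 days in a greenhouse at 25° C to 30° C, then sprayed on the foliage with the compound's emulsion diluted in water to a predetermined herbicide amount. Injury to weeds and crops scored three weeks after application on a visual rating scale.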

Q: Which “herbicidal effect on F: southern crabgrass” value does the source give for CCCC(=O)Oc1c(C)nn(C)c(=O)c1-c1c(-c2ccc(SC)cc2)sc2ccc(F)cc12 [2-077] here?
A: 5 (Herbicidal rate of 90% or more (almost completely withered))

system: late watergrass; experiment: Test Example 1: herbicidal activity, application before weed generation under submerged conditions (Table 16, symbol A); format: in vivo, late watergrass (Echinochloa oryzicola); settings: 320 g/ha applied herbicide
Summary of the method: as §3

Q: CCCC(=O)Oc1c(C)nn(C)c(=O)c1-c1c(-c2ccc(SC)cc2)sc2ccc(F)cc12 [2-077] was tested. Which “Herbicidal effect on A: late watergrass (grade 0-5)” value did it give?
A: 3 (Herbicidal rate of 40% or more and less than 70%)

system: rice flat sedge; experiment: Test Example 3: herbicidal effect by foliage application, Wagner pot (Table 18, symbol E); format: in vivo, rice flat sedge (Cyperus iria); settings: 320 g/ha
Summary of the method: as §2

Q: How did the “herbicidal effect on E (rice flat sedge), rating 0-5” value turn out when CCCC(=O)Oc1c(C)nn(C)c(=O)c1-c1c(-c2ccc(SC)cc2)sc2ccc(F)cc12 [2-077] was run?
A: 5 (Herbicidal rate of 90% or more (almost completely withered))

system: Chinese sprangletop; experiment: Test Example 3: herbicidal effect by foliage application, Wagner pot (Table 18, symbol D); format: in vivo, chinese sprangletop (Leptochloa chinensis); settings: 320 g/ha
Summary of the method: as §2

Q: CCCC(=O)Oc1c(C)nn(C)c(=O)c1-c1c(-c2ccc(SC)cc2)sc2ccc(F)cc12 [2-077] was tested. Which “herbicidal effect on D (Chinese sprangletop), rating 0-5” value did it give?
A: 5 (Herbicidal rate of 90% or more (almost completely withered))

system: windgrass; experiment: Test Example 4: herbicidal effect by soil treatment (Table 19, symbol L); format: in vivo, windgrass (Apera spica-venti); settings: 320 g/ha
Summary of the method: (§5)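 Three weeks of greenhouse growth at 25° C. to 30° C. followed a uniform surface spray of water-diluted emulsion at a predetermined herbicide amount. Seeds had been sown beforehand under about 1.5 cm of sterilized diluvial soil. Grading followed criteria set out in an earlier test.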

Q: CCCC(=O)Oc1c(C)nn(C)c(=O)c1-c1c(-c2ccc(SC)cc2)sc2ccc(F)cc12 [2-077] was tested. Which “herbicidal effect rating, L: windgrass” value did it give?
A: 3 (Herbicidal rate of 40% or more and less than 70%)

system: blackgrass; experiment: Test Example 5: herbicidal effect by foliage application, plastic box (Table 20, symbol J); format: in vivo, blackgrass (Alopecurus myosuroides); settings: foliage application, 320 g/ha, evaluated three weeks after application
Summary of the method: as §4

Q: CCCC(=O)Oc1c(C)nn(C)c(=O)c1-c1c(-c2ccc(SC)cc2)sc2ccc(F)cc12 [2-077] was tested. Which “herbicidal effect on J: blackgrass” value did it give?
A: 4 (Herbicidal rate of 70% or more and less than 90%)

system: late watergrass; experiment: Test Example 2: herbicidal activity, application during weed generation under submerged conditions (Table 17, symbol A); format: in vivo, late watergrass (Echinochloa oryzicola); settings: AAH 320 g/ha; application during weed generation, submerged conditions
Summary of the method: as §1

Q: With CCCC(=O)Oc1c(C)nn(C)c(=O)c1-c1c(-c2ccc(SC)cc2)sc2ccc(F)cc12 [2-077] as the compound, how does the “herbicidal effect rating, A: late watergrass” value read?
A: 4 (Herbicidal rate of 70% or more and less than 90%)

system: redroot pigweed; experiment: Test Example 4: herbicidal effect by soil treatment (Table 19, symbol N); format: in vivo, redroot pigweed (Amaranthus retroflexus); settings: 320 g/ha
Summary of the method: as §5

Q: How did the “herbicidal effect rating, N: redroot pigweed” value turn out when CCCC(=O)Oc1c(C)nn(C)c(=O)c1-c1c(-c2ccc(SC)cc2)sc2ccc(F)cc12 [2-077] was run?
A: 5 (Herbicidal rate of 90% or more (almost completely withered))

system: persian speedwell; experiment: Test Example 5: herbicidal effect by foliage application, plastic box (Table 20, symbol R); format: in vivo, Persian speedwell (Veronica persica); settings: foliage application, 320 g/ha, evaluated three weeks after application
Summary of the method: as §4

Q: How did the “herbicidal effect on R: persian speedwell” value turn out when CCCC(=O)Oc1c(C)nn(C)c(=O)c1-c1c(-c2ccc(SC)cc2)sc2ccc(F)cc12 [2-077] was run?
A: 5 (Herbicidal rate of 90% or more (almost completely withered))

system: Italian ryegrass; experiment: Test Example 4: herbicidal effect by soil treatment (Table 19, symbol K); format: in vivo, Italian ryegrass (Lolium multiflorum); settings: 320 g/ha
Summary of the method: as §5

Q: CCCC(=O)Oc1c(C)nn(C)c(=O)c1-c1c(-c2ccc(SC)cc2)sc2ccc(F)cc12 [2-077] was tested. Which “herbicidal effect rating, K: Italian ryegrass” value did it give?
A: 3 (Herbicidal rate of 40% or more and less than 70%)

system: barnyard grass; experiment: Test Example 5: herbicidal effect by foliage application, plastic box (Table 20, symbol H); format: in vivo, barnyard grass (Echinochloa crus-galli); settings: foliage application, 320 g/ha, evaluated three weeks after application
Summary of the method: as §4

Q: CCCC(=O)Oc1c(C)nn(C)c(=O)c1-c1c(-c2ccc(SC)cc2)sc2ccc(F)cc12 [2-077] was tested. Which “herbicidal effect on H: barnyard grass” value did it give?
A: 5 (Herbicidal rate of 90% or more (almost completely withered))

system: wild oat; experiment: Test Example 5: herbicidal effect by foliage application, plastic box (Table 20, symbol I); format: in vivo, wild oat (Avena fatua); settings: foliage application, 320 g/ha, evaluated three weeks after application
Summary of the method: as §4

Q: CCCC(=O)Oc1c(C)nn(C)c(=O)c1-c1c(-c2ccc(SC)cc2)sc2ccc(F)cc12 [2-077] was tested. Which “herbicidal effect on I: wild oat” value did it give?
A: 5 (Herbicidal rate of 90% or more (almost completely withered))

system: green foxtail; experiment: Test Example 5: herbicidal effect by foliage application, plastic box (Table 20, symbol G); format: in vivo, green foxtail (Setaria viridis); settings: foliage application, 320 g/ha, evaluated three weeks after application
Summary of the method: as §4

Q: With CCCC(=O)Oc1c(C)nn(C)c(=O)c1-c1c(-c2ccc(SC)cc2)sc2ccc(F)cc12 [2-077] as the compound, how does the “herbicidal effect on G: green foxtail” value read?
A: 5 (Herbicidal rate of 90% or more (almost completely withered))
